Assay results: patent US20230095836A1, “SUBSTITUTED 5,6-DIPHENYL-3(2H)-PYRIDAZINONES FOR USE AS FUNGICIDES” (FMC Corporation, priority 2020, published 2023)

Legend:
Assay type in all cases: in vivo
Phakopsora pachyrhizi = assay: Test D: test solution sprayed on soybean seedlings, inoculated next day with Phakopsora pachyrhizi (Asian soybean rust); visual disease rating (100 = 100% disease control, 0 = no control; dash = not tested)
How it was run: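 Preventive spray test: soybean seedlings treated to run-off with ppm-level suspensions (acetone/water 50/50, 250 ppm PEG400), spore-inoculated one day later. Held 24 h at 22 °C in saturated air, then 8 days at 22 °C; disease control scored visually versus untreated plants, 0 = none, 100 = complete.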

Alternaria solani = assay: Test F: test suspension sprayed on tomato seedlings, inoculated next day with Alternaria solani (tomato early blight); visual disease rating (100 = 100% disease control, 0 = no control; dash = not tested)
How it was run: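 Visual ratings of % disease control versus controls were made after inoculated plants spent 48 h at 27° C. in saturated air plus 3 days at 20° C. The compound suspension had been sprayed to run-off one day before spore inoculation.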

[1] = system: Blumeria graminis f. sp. tritici; assay: Test C: test suspension sprayed on wheat seedlings, inoculated next day with Blumeria graminis f. sp. tritici (wheat powdery mildew); visual disease rating (100 = 100% disease control, 0 = no control; dash = not tested)
How it was run: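 Visual ratings of disease control (0–100, relative to controls) were made 8 days after inoculation with B. graminis f. sp. tritici spore dust. Plants were held at 20 °C. Compound was applied as a spray to run-off one day before inoculation.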

Botrytis cinerea = assay: Test E: test suspension sprayed on tomato seedlings, inoculated next day with Botrytis cinerea (tomato Botrytis); visual disease rating (100 = 100% disease control, 0 = no control; dash = not tested)
How it was run: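 Spores were applied one day after spraying the seedlings to run-off. Incubation was 48 h saturated at 20° C, then 3 days in a 24° C growth chamber. Visual ratings, relative to untreated controls, run from 0 (no control) to 100 (complete control).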

Zymoseptoria tritici = assay: Test A: test solution sprayed on wheat seedlings, inoculated next day with Zymoseptoria tritici (wheat leaf blotch); disease rating (100 = 100% disease control, 0 = no control; dash = not tested)
How it was run: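 Preventive spray test: compound applied to run-off one day before spore inoculation of wheat seedlings. Incubation was 48 h saturated humidity at 24° C followed by 17 days at 20° C. Disease then scored 0–100 as % control versus untreated plants.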

[2] = system: Puccinia recondita f. sp. tritici; assay: Test B: test solution sprayed on wheat seedlings, inoculated next day with Puccinia recondita f. sp. tritici (wheat leaf rust); disease rating (100 = 100% disease control, 0 = no control; dash = not tested)
Text: The resulting test suspensions were then used in Tests A-F. The test solution was sprayed to the point of run-off on wheat seedlings. […] A rating of 100 indicates 100% disease control and a rating of 0 indicates no disease control (relative to the controls). A dash (—) indicates the compound was not tested.

| Structure (SMILES) | Test D disease control rating (Phakopsora pachyrhizi; 50 ppm) [%] | Test F disease control rating (Alternaria solani; 50 ppm) [%] | Test C disease control rating ([1]; 50 ppm) [%] | Test E disease control rating (Botrytis cinerea; 50 ppm) [%] | Test A disease control rating (Zymoseptoria tritici; 50 ppm) [%] | Test B disease control rating ([2]; 50 ppm) [%] | also measured |
| --- | --- | --- | --- | --- | --- | --- | --- |
| CCn1nc(-c2cc(OC)cc(OC)c2Br)c(-c2c(F)cccc2F)c(OC)c1=O [Compound 74] | 75 | 0 | 98 | 99 | 100 | 99 | – |
| COc1ccc(-c2nn(C)c(=O)c(Cl)c2-c2ccc(F)cc2Cl)c(F)c1 [Compound 163] | 77 | 99 | 78 | 100 | 100 | 100 | – |
| COc1c(-c2ccc(F)cc2Cl)c(-c2ccc(F)cc2Br)nn(C)c1=O [Compound 162] | 13 | 16 | 98 | 99 | 100 | 89 | – |
| Cn1nc(-c2ccc(F)cc2Cl)c(-c2ccc(F)cc2Cl)c(CC#N)c1=O [Compound 177] | 0 | 0 | 0 | 0 | 88 | 80 | – |
| CCc1c(-c2ccc(F)cc2Cl)c(-c2ccc(F)cc2Cl)nn(C)c1=O [Compound 167] | 0 | 100 | 100 | 86 | 100 | 100 | – |
| Cn1nc(-c2ccc(F)cc2Cl)c(-c2ccc(F)cc2Cl)c(C(=O)O)c1=O [Compound 144] | – | – | – | – | – | – | Test D disease control rating (Phakopsora pachyrhizi; 250 ppm): 74%; Test F disease control rating (Alternaria solani; 250 ppm): 0%; Test C disease control rating ([1]; 250 ppm): 0%; Test E disease control rating (Botrytis cinerea; 250 ppm): 0%; Test A disease control rating (Zymoseptoria tritici; 250 ppm): 0%; Test B disease control rating ([2]; 250 ppm): 0% |
| COc1c(-c2ccc(F)cc2Cl)c(-c2cccc(F)c2F)nn(C)c1=O [Compound 116] | 52 | 100 | 99 | 98 | 100 | 100 | – |
| CCn1nc(-c2c(Cl)c(OC)cc(OC)c2Cl)c(-c2c(F)cccc2F)cc1=O [Compound 2] | – | – | – | – | – | – | Test D disease control rating (Phakopsora pachyrhizi; 250 ppm): 0%; Test F disease control rating (Alternaria solani; 250 ppm): 0%; Test C disease control rating ([1]; 250 ppm): 0%; Test E disease control rating (Botrytis cinerea; 250 ppm): 0%; Test A disease control rating (Zymoseptoria tritici; 250 ppm): 2%; Test B disease control rating ([2]; 250 ppm): 0% |
| COc1cccc(-c2nn(C)c(=O)c(Cl)c2-c2ccc(F)cc2Cl)c1Cl [Compound 140] | 100 | 100 | 99 | 99 | 99 | 100 | – |
| COc1cc(OC)c(Cl)c(-c2nn(C)c(=O)c(C)c2-c2ccc(F)cc2Cl)c1Cl [Compound 47] | 0 | 0 | 43 | 91 | 52 | 68 | – |
| Cn1nc(-c2ccccc2)c(-c2ccc(F)cc2Cl)c(Cl)c1=O [Compound 141, 4-chloro-5-(2-chloro-4-fluorophenyl)-2-methyl-6-phenyl-3(2H)-pyridazinone] | – | – | – | – | – | – | pest or weed control at 50 ppm (Phakopsora pachyrhizi; 50 ppm): 0%; pest or weed control at 50 ppm (Alternaria solani; 50 ppm): 99%; pest or weed control at 50 ppm ([1]; 50 ppm): 99%; pest or weed control at 50 ppm (Botrytis cinerea; 50 ppm): 98%; pest or weed control at 50 ppm (Zymoseptoria tritici; 50 ppm): 99%; pest or weed control at 50 ppm ([2]; 50 ppm): 98% |
| CCn1nc(-c2cc(OC)cc(OC)c2)c(-c2c(F)cccc2F)c(Br)c1=O [Compound 15] | 0 | 0 | 13 | 68 | 78 | 41 | – |
| COc1c(-c2ccc(F)cc2Cl)c(-c2cc(F)ccc2Br)nn(C)c1=O [Compound 121] | 72 | 99 | 99 | 99 | 100 | 100 | – |
| COc1cccc(-c2nn(C)c(=O)cc2-c2c(F)cccc2F)c1Cl [Compound 30] | – | – | – | – | – | – | Test D disease control rating (Phakopsora pachyrhizi; 250 ppm): 98%; Test F disease control rating (Alternaria solani; 250 ppm): 41%; Test C disease control rating ([1]; 250 ppm): 84%; Test E disease control rating (Botrytis cinerea; 250 ppm): 100%; Test A disease control rating (Zymoseptoria tritici; 250 ppm): 100%; Test B disease control rating ([2]; 250 ppm): 99% |
| CCc1c(-c2ccc(F)cc2Cl)c(-c2cc(OC)ccc2Cl)nn(C)c1=O [Compound 134, 5-(2-chloro-4-fluorophenyl)-6-(2-chloro-5-methoxyphenyl)-4-ethyl-2-methyl-3(2H)-pyridazinone] | – | – | – | – | – | – | pest or weed control at 50 ppm (Phakopsora pachyrhizi; 50 ppm): 96%; pest or weed control at 50 ppm (Alternaria solani; 50 ppm): 100%; pest or weed control at 50 ppm ([1]; 50 ppm): 100%; pest or weed control at 50 ppm (Botrytis cinerea; 50 ppm): 98%; pest or weed control at 50 ppm (Zymoseptoria tritici; 50 ppm): 100%; pest or weed control at 50 ppm ([2]; 50 ppm): 100% |
| Cc1c(-c2ccc(F)cc2Cl)c(-c2cc(O)ccc2Cl)nn(C)c1=O [Compound 161] | 99 | 47 | 100 | 96 | 98 | 99 | – |
| CCn1nc(-c2cc(OC)cc(OC)c2)c(-c2c(F)cccc2F)c(Cl)c1=O [Compound 1] | – | – | – | – | – | – | Test D disease control rating (Phakopsora pachyrhizi; 250 ppm): 0%; Test F disease control rating (Alternaria solani; 250 ppm): 0%; Test C disease control rating ([1]; 250 ppm): 0%; Test E disease control rating (Botrytis cinerea; 250 ppm): 90%; Test A disease control rating (Zymoseptoria tritici; 250 ppm): 87%; Test B disease control rating ([2]; 250 ppm): 55% |
| COc1ccc(Cl)c(-c2nn(C)c(=O)c(OC)c2-c2ccc(F)cc2Br)c1 [Compound 103] | 97 | 99 | 100 | 91 | 100 | 100 | – |
